Source: US9765087B2, “Benzimidazole derivatives” (ENANTA PHARMACEUTICALS, INC., priority 2009, dated 2017)
pEC50: −log10 of the molar value. Where two headings read alike, the source gives them in different places.

Assays:
HCV 1a genotype replicon = assay: HCV replicon assay (qRT-PCR or luciferase), genotype 1a; assay type: cell-based; settings: Hepatitis C virus
Outline: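 Bartenschlager HCV replicon Huh cells; EC50 from HCV RNA by TaqMan qRT-PCR normalised to GAPDH, cytotoxicity by MTS. Combination studies in Huh-luc/neo-ET cells seeded at 7,000/well, compounds in 6-point two-fold dilutions, 0.2% DMSO final, 72 h at 37 °C, luciferase read-out.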

HCV 1b genotype replicon = assay: HCV replicon assay (qRT-PCR or luciferase), genotype 1b; assay type: cell-based; settings: Hepatitis C virus
Outline: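 Genotype 1b subgenomic replicon Huh-luc/neo-ET cells (7,000/well) treated with compound for 72 h at 37 °C, 0.2% DMSO final; replication read by firefly luciferase. EC50 alternatively from qRT-PCR of HCV RNA normalized to GAPDH; cytotoxicity by MTS.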

[1] = Table 12, range class, read-out: 1a EC50 Range
[2] = Table 12, numeric values, read-out: 1b EC50
[3] = Table 12, numeric values, read-out: 1a EC50
[4] = Table 12, range class, read-out: 1b EC50 Range

SMILES	pEC50 (HCV 1a genotype replicon; [1])	pEC50 (HCV 1b genotype replicon; [2])	pEC50 (HCV 1a genotype replicon; [3])	pEC50 (HCV 1b genotype replicon; [4])	pEC50 (HCV 1a genotype replicon; read-out: 1a EC50 Range, Table 12, range class)
COC(=O)N[C@H](C(=O)N1CC2(CC2)C[C@H]1c1ncc(-c2ccc(C#Cc3ccc4nc([C@@H]5C[C@]6(CCOC6)CN5C(=O)[C@@H](NC(=O)OC)C(C)C)[nH]c4c3)cc2)[nH]1)C(C)C [Example 565]	> 9.00	10.96	–	–	–
COC(=O)N[C@H](C(=O)N1C[C@](C)(F)C[C@H]1c1nc(-c2ccc(C#Cc3ccc4[nH]c([C@@H]5C[C@@]6(CCCO6)CN5C(=O)[C@@H](NC(=O)OC)C(C)C)nc4c3)cc2)c[nH]1)C(C)C [Example 567]	> 9.00	10.82	–	–	–
COC(=O)N[C@H](C(=O)N1CCC[C@H]1c1nc(-c2ccc(C#Cc3ccc4[nH]c([C@@H]5CC6(CCOCC6)CN5C(=O)[C@@H](NC(=O)OC)C(C)C)nc4c3)cc2)c[nH]1)C(C)C [Example 568]	> 9.00	11.05	–	–	–
COC(=O)N[C@H](C(=O)N1CCC[C@H]1c1ncc(-c2ccc(C#Cc3ccc4nc([C@@H]5C[C@@]6(CCCOC6)CN5C(=O)[C@@H](NC(=O)OC)C(C)C)[nH]c4c3)cc2)[nH]1)C(C)C [Example 569]	> 9.00	11.05	–	–	–
COC(=O)N[C@H](C(=O)N1CCC[C@H]1c1nc(-c2ccc3nc(-c4ccc5[nH]c([C@@H]6CC7(CC7)CN6C(=O)[C@@H](NC(=O)OC)C(C)C)nc5c4)ccc3c2)c[nH]1)C(C)C [Example 574]	–	10.44	9.90	–	–
[2H]c1c([2H])c(-c2c[nH]c([C@@H]3CC4(CC4)CN3C(=O)[C@@H](NC(=O)OC)C(C)C)n2)c([2H])c([2H])c1C#Cc1ccc2[nH]c([C@@H]3CC4(CC4)CN3C(=O)[C@@H](NC(=O)OC)C(C)C)nc2c1 [Example 575]	> 9.00	–	–	> 9.00	–
COC(=O)N[C@H](C(=O)N1CC2(CC2)C[C@H]1c1nc2cc(C#Cc3ccc(-c4c[nH]c([C@@H]5CCCN5C(=O)[C@H](NC(=O)OC)c5ccccc5)n4)cc3)ccc2[nH]1)C(C)C [Example 579]	> 9.00	–	–	> 9.00	–
COC(=O)N[C@H](C(=O)N1CC2(CC2)C[C@H]1c1ncc(-c2ccc(C#Cc3ccc4nc([C@@H]5CC6(CC6)CN5C(=O)[C@H](NC(=O)OC)c5ccc(F)cc5)[nH]c4c3)cc2)[nH]1)C(C)C [Example 580]	> 9.00	11.15	–	–	–
COC(=O)N[C@H](C(=O)N1CC2(CC2)C[C@H]1c1ncc(-c2ccc(C#Cc3ccc4nc([C@@H]5CC6(CC6)CN5C(=O)[C@@H](NC(=O)OC)C5CCOCC5)[nH]c4c3)cc2)[nH]1)C1CCOCC1 [Example 583]	> 9.00	–	–	> 9.00	–
COC(=O)N[C@H](C(=O)N1CC2(CC2)C[C@H]1c1ncc(-c2ccc(C#Cc3ccc4nc([C@@H]5C[C@@H](C6CC6)CN5C(=O)[C@@H](NC(=O)OC)C(C)C)[nH]c4c3)cc2)[nH]1)C(C)C [Example 612]	> 9.00	–	–	> 9.00	–
COC(=O)N[C@H](C(=O)N1C[C@]2(C[C@H]1c1ncc(-c3ccc(C#Cc4ccc5nc([C@@H]6CC7(CC7)CN6C(=O)[C@@H](NC(=O)OC)C(C)C)[nH]c5c4)cc3)[nH]1)CC2(F)F)C(C)C [Example 614]	> 9.00	11.40	–	–	–
COC(=O)N[C@@H](CF)C(=O)N1CC2(CC2)C[C@H]1c1nc(-c2ccc(C#Cc3ccc4[nH]c([C@@H]5CC6(CC6)CN5C(=O)[C@@H](NC(=O)OC)C(C)C)nc4c3)cc2)c[nH]1 [Example 615]	> 9.00	11.30	–	–	–
COC(=O)N[C@@H](CCCNC(N)=O)C(=O)N1CC2(CC2)C[C@H]1c1nc(-c2ccc(C#Cc3ccc4[nH]c([C@@H]5CC6(CC6)CN5C(=O)[C@@H](NC(=O)OC)C(C)C)nc4c3)cc2)c[nH]1 [Example 616]	> 9.00	9.31	–	–	–
COC(=O)N[C@@H](CC#N)C(=O)N1CCC[C@H]1c1nc(-c2ccc(C#Cc3ccc4[nH]c([C@@H]5CC6(CC6)CN5C(=O)[C@@H](NC(=O)OC)C(C)C)nc4c3)cc2)c[nH]1 [Example 621]	–	–	9.68	> 9.00	–
COC(=O)N[C@H](C(=O)N1C[C@]2(CCCO2)C[C@H]1c1ncc(-c2ccc(C#Cc3ccc4nc([C@@H]5C[C@@]6(CCCO6)CN5C(=O)[C@@H](NC(=O)OC)C(C)C)[nH]c4c3)cc2)[nH]1)C(C)C [Example 625]	> 9.00	–	–	> 9.00	–
COC(=O)N[C@H](C(=O)N1CC(F)(F)C[C@H]1c1nc(-c2ccc(C#Cc3ccc4[nH]c([C@@H]5C[C@@]6(CCCO6)CN5C(=O)[C@@H](NC(=O)OC)C(C)C)nc4c3)cc2)c[nH]1)C(C)C [Example 627]	> 9.00	11.00	–	–	–
COC(=O)N[C@H](C(=O)N1C[C@H](F)C[C@H]1c1nc(-c2ccc(C#Cc3ccc4[nH]c([C@@H]5C[C@@]6(CCCO6)CN5C(=O)[C@@H](NC(=O)OC)C(C)C)nc4c3)cc2)c[nH]1)C(C)C [Example 629]	–	10.77	9.74	–	–

SMILES	pEC50 (HCV 1a genotype replicon; [1])	pEC50 (HCV 1b genotype replicon; [2])	pEC50 (HCV 1a genotype replicon; [3])	pEC50 (HCV 1b genotype replicon; [4])	pEC50 (HCV 1a genotype replicon; read-out: 1a EC50 Range, Table 12, range class)
COC(=O)N[C@H](C(=O)N1CCC[C@H]1c1nc(-c2ccc(C#Cc3ccc4[nH]c([C@@H]5C[C@@]6(CCOC6)CN5C(=O)[C@@H](NC(=O)OC)C(C)C)nc4c3)cc2)c[nH]1)C(C)C [Example 630]	> 9.00	10.96	–	–	–
COC(=O)N[C@H](C(=O)N1CC2(CC2)C[C@H]1c1nc(-c2ccc(C#Cc3ccc4[nH]c([C@@H]5C[C@@]6(CCOC6)CN5C(=O)[C@@H](NC(=O)OC)C(C)C)nc4c3)cc2)c[nH]1)C(C)C [Example 631]	> 9.00	11.10	–	–	–
COC(=O)N[C@H](C(=O)N1CC2(CC2)C[C@H]1c1ncc(-c2ccc(C#Cc3ccc4nc([C@@H]5C[C@@]6(CCCCO6)CN5C(=O)[C@@H](NC(=O)OC)C(C)C)[nH]c4c3)cc2)[nH]1)C(C)C [Example 633]	–	–	10.46	> 9.00	–
COC(=O)N[C@H](C(=O)N1CCC[C@H]1c1ncc(-c2ccc(C#Cc3ccc4nc([C@@H]5C[C@@]6(CCC(=O)O6)CN5C(=O)[C@@H](NC(=O)OC)C(C)C)[nH]c4c3)cc2)[nH]1)C(C)C [Example 635]	> 9.00	–	–	> 9.00	–
COC(=O)N[C@H](C(=O)N1CC2(CC2)C[C@H]1c1nc2ccc(C#Cc3ccc(-c4cnc([C@@H]5C[C@H]6C[C@H]6N5C(=O)[C@@H](NC(=O)OC)C(C)C)[nH]4)cc3)cc2[nH]1)C(C)C [Example 637]	> 9.00	11.40	–	–	–
COC(=O)N[C@H](C(=O)N1CC2(CC2)C[C@H]1c1ncc(-c2ccc(C#Cc3ccc4nc([C@@H]5C[C@@]6(CCCOC6)CN5C(=O)[C@@H](NC(=O)OC)C(C)C)[nH]c4c3)cc2)[nH]1)C(C)C [Example 638]	> 9.00	11.15	–	–	–
COC(=O)N[C@H](C(=O)N1CC2(CC2)C[C@H]1c1ncc(-c2ccc(C#Cc3ccc4nc([C@@H]5C[C@]6(CCCOC6)CN5C(=O)[C@@H](NC(=O)OC)C(C)C)[nH]c4c3)cc2)[nH]1)C(C)C [Example 639]	> 9.00	11.10	–	–	–
COC(=O)N[C@H](C(=O)N1CC2(CC2)C[C@H]1c1nc(-c2ccc(-c3ccc4[nH]c([C@@H]5CC6(CC6)CN5C(=O)[C@@H](NC(=O)OC)C(C)C)nc4c3)cc2)c[nH]1)C(C)C [Example 640]	8.00 to 9.00	10.52	–	–	–
COC(=O)N[C@H](C(=O)N1CCC[C@H]1c1ncc(-c2ccc(C#Cc3ccc4nc([C@@H]5C[C@H](C6CC6)CN5C(=O)[C@@H](NC(=O)OC)C(C)C)[nH]c4c3)cc2)[nH]1)C(C)C [Example 641]	> 9.00	11.15	–	–	–
COC(=O)N[C@H](C(=O)N1CCC[C@H]1c1ncc(-c2ccc3nc(-c4ccc5nc([C@@H]6CC7(CC7)CN6C(=O)[C@@H](NC(=O)OC)C(C)C)[nH]c5c4)cnc3c2)[nH]1)C(C)C [Example 643]	> 9.00	10.27	–	–	–
COC(=O)N[C@H](C(=O)N1CCC[C@H]1c1nc(-c2ccc3nc(-c4ccc5[nH]c([C@@H]6CC7(CC7)CN6C(=O)[C@@H](NC(=O)OC)C(C)C)nc5c4)ncc3c2)c[nH]1)C(C)C [Example 644]	> 9.00	10.35	–	–	–
COC(=O)N[C@@H](C(=O)N1CC2(CC2)C[C@H]1c1ncc(-c2ccc(C#Cc3ccc4nc([C@@H]5CC6(CC6)CN5C(=O)[C@H](NC(=O)OC)c5ccccc5)[nH]c4c3)cc2)[nH]1)c1ccccc1 [Example 645]	> 9.00	11.30	–	–	–
COC(=O)N[C@H](C(=O)N1CCC[C@H]1c1ncc(-c2ccc(C#Cc3ccc4nc([C@@H]5CC6(CC6)CN5C(=O)[C@H](NC(=O)OC)c5ccccc5)[nH]c4c3)cc2)[nH]1)C(C)C [Example 646]	–	11.30	–	–	> 9.00
COC(=O)N[C@H](C(=O)N1C[C@@]2(C[C@H]1c1nc(-c3ccc(C#Cc4ccc5[nH]c([C@@H]6CC7(CC7)CN6C(=O)[C@@H](NC(=O)OC)C(C)C)nc5c4)cc3)c[nH]1)CC2(F)F)C(C)C [Example 687]	> 9.00	11.00	–	–	–
COC(=O)N[C@H](C(=O)N1CC2(CC2)C[C@H]1c1ncc(-c2ccc(C#Cc3ccc4nc([C@@H]5C[C@H](C6CC6)CN5C(=O)[C@@H](NC(=O)OC)C(C)C)[nH]c4c3)cc2)[nH]1)C(C)C [Example 691]	> 9.00	–	–	> 9.00	–
COC(=O)N[C@H](C(=O)N1CCC[C@H]1c1nc(-c2ccc3cc(-c4ccc5[nH]c([C@@H]6CC7(CC7)CN6C(=O)[C@@H](NC(=O)OC)C(C)C)nc5c4)ccc3c2)c[nH]1)C(C)C [Example 692]	> 9.00	10.96	–	–	–
COC(=O)NCCCC[C@H](NC(=O)OC)C(=O)N1CCC[C@H]1c1nc(-c2ccc(C#Cc3ccc4[nH]c([C@@H]5CC6(CC6)CN5C(=O)[C@@H](NC(=O)OC)C(C)C)nc4c3)cc2)c[nH]1 [Example 693]	> 9.00	–	–	> 9.00	–
